# Results published in PubChem BioAssay AID1159564 (GlaxoSmithKline (GSK), 2015).
# The source made the active and inactive calls. No rule for the calls is given here.
# System: L. donovani-infected THP-1 macrophages, intracellular amastigote imaging
# Test: antileishmanial activity in infected THP-1 macrophages – imaging, THP-1 host macrophages, host toxicity (AID 1159564)
# [1] = measured here: THP-1 host cell toxicity
# [2] = measured here: amastigotes per macrophage
SMILES,IC50,IC50 [1] [µM],IC50 [2] [µM]
Nc1cc(-c2ccc3ncnc(N4CCOCC4)c3c2)cnc1N,10 µM,> 50,1.3
Cc1nn2c(NCCCO)c3c(nc2c1-c1cccs1)CCC3,> 50 µM (inactive),> 50,> 50
Cc1c(C(=O)NCCCCn2ccnc2)oc2c(C)cccc12,> 50 µM (inactive),> 50,> 50
O=C(N[C@H](CO)c1ccccc1)c1ccc(-c2c[nH]c3nccc(C(F)(F)F)c23)s1,25 µM,13,16
CCC1Oc2cc(S(=O)(=O)N(C)CC(=O)N3CCc4ccccc4C3)c(C)cc2NC1=O (stereo not drawn),> 50 µM (inactive),> 50,32
Cc1ccccc1OCC(=O)N1CCCN(c2cccnn2)CC1,> 50 µM (inactive),> 50,> 50
O=C(CN(c1cccc(C(F)(F)F)c1)S(=O)(=O)c1ccc(Cl)cc1)NCc1ccc(F)c(F)c1,> 50 µM (inactive),20,> 50
O=[N+]([O-])c1ccc(-c2nnn(-c3cccnc3)n2)o1,> 50 µM (inactive),13,50
CC(C)Oc1cccc(N2CCC(C(=O)N3CCCN(C(C)C)CC3)CC2)c1,> 50 µM (inactive),> 50,> 50
O=C(N1CCc2ccccc2CC1)C1(C(=O)N2CCC(n3c(=O)[nH]c4ncccc43)CC2)CC1,> 50 µM (inactive),> 50,> 50
CCN(CC)c1nc(Nc2ccncc2)nc2ccccc12,6.3 µM,25,2
O=C(Nc1nc(-c2ccccn2)cs1)c1ccccc1-n1cnnn1,6.3 µM,5,4
N#Cc1ccc(C(=O)Nc2cccc(-c3cccc(CN4CCC(O)CC4)c3)c2)cc1,16 µM,16,7.9
COc1ccc(-c2cc(C)no2)cc1S(=O)(=O)Nc1ccc(C)c(C)c1,2.5 µM,> 50,2
COc1ccc(CNc2nsc3ccccc23)cc1OC,6.3 µM,25,5
CC(C(=O)Nc1ccccc1F)N(C)CC(=O)Nc1cccc2ccccc12 (stereo not drawn),> 50 µM (inactive),> 50,> 50
O=C(CSc1nnc2ccc(-c3ccc(F)cc3)nn12)N1CCCCC1,> 50 µM (inactive),6.3,> 50
CNS(=O)(=O)c1ccccc1Nc1nc(Nc2cc(C)nn2C)ncc1Cl,1 µM,0.2,0.25
O=c1cc(NCCCNCc2c[nH]c3ccc(Br)cc23)[nH]c2ccccc12,> 50 µM (inactive),> 50,> 50
Cc1nn(C)c(Cl)c1CN(Cc1cccnc1)Cc1ccsc1,> 50 µM (inactive),> 50,3.2
Cn1c(CN2CCN(c3ncc(C(F)(F)F)cc3Cl)CC2)nc2ccncc21,> 50 µM (inactive),6.3,–
COc1ccccc1C(=O)Nc1nnc(-c2ccc3c(c2)OCO3)s1,1 µM,16,0.63
Cn1cc(CN2CCN(c3ccc4c(c3)CCN(C(=O)[C@H]3C[C@@H]3c3ccccc3)CC4)CC2)cn1,32 µM,6.3,1

SMILES,IC50,IC50 [1] [µM],IC50 [2] [µM]
Cc1c(CNC(=O)c2ccc(Cn3cc(Cl)c([N+](=O)[O-])n3)cc2)cnn1C,> 50 µM (inactive),> 50,> 50
CCC(=O)N1N=C(c2ccc3c(c2)CCCC3)Sc2c1ncn2C(=O)CC,3.2 µM,> 50,2.5
O=C(NCCc1ccn(-c2ccccc2)n1)C1CCCCC1,> 50 µM (inactive),> 50,> 50
Cc1ccc(C)c(-n2nnnc2Sc2nc([N+](=O)[O-])nn2C)c1,> 50 µM (inactive),> 50,> 50
O=C(NCCc1nc(-c2ccc(F)c(F)c2)n[nH]1)C1CCCCC1,> 50 µM (inactive),20,16
COc1ccc2ncc(Cl)c(CCN3CC[C@@H](NCc4cc5c(cn4)OCS5)[C@H](O)C3)c2n1,13 µM,25,7.9
CN(Cc1cccnc1)Cc1ccc(N2CCN(C(=O)C3(c4ccc(Cl)cc4)CC3)CC2)nc1,> 50 µM (inactive),10,> 50
CN(C)S(=O)(=O)c1ccc(Cl)c(C(=O)Nc2nc(-c3ccccn3)cs2)c1,10 µM,6.3,5
CC1CN(S(=O)(=O)c2ccc(NC(=O)c3cc(C4CC4)nc4c3cnn4C(C)C)cc2)CC(C)O1 (stereo not drawn),> 50 µM (inactive),10,> 50
COCc1cc(Nc2ccccc2)nc(-c2ccccn2)n1,7.9 µM,> 50,5
O=C(Nc1ncc([N+](=O)[O-])s1)C1CC1,> 50 µM (inactive),> 50,> 50
CNc1c(C(N)=O)c(-c2ccc3scnc3c2)nn1CC(F)(F)F,> 50 µM (inactive),> 50,> 50
COc1ccc(Cl)cc1CC(=O)Nc1n[nH]c(-c2ccccn2)n1,6.3 µM,> 50,5
O=C(Nc1nc2cc(Cl)ccc2o1)c1cccc(Cl)c1,> 50 µM (inactive),6.3,> 50
N#Cc1cc([N+](=O)[O-])ccc1NC1CCCCCC1,> 50 µM (inactive),> 50,> 50
Cc1ccc(S(=O)(=O)Nc2ccc(CN3CCN(C(=O)c4cccc(C#N)c4)CC3)cc2)cc1,> 50 µM (inactive),> 50,25
CC(=O)NC1(c2ccccc2)CCN(CC(=O)Nc2ccccc2-c2ccccc2)CC1,> 50 µM (inactive),> 50,40
COc1cccc(-c2c(C)nn(-c3nc(N)nc(-c4ccccn4)n3)c2N)c1,2 µM,> 50,1.6
NC(=O)c1ccc(-c2cccc(OCCN3CCN(C4CCCCC4)CC3)c2)cc1,50 µM,32,10
O=C(Cn1cnc2cc([N+](=O)[O-])ccc2c1=O)NCCc1ccc(Cl)cc1Cl,> 50 µM (inactive),> 50,> 50
CC(C)(C)C(Cn1ccnc1)NC(=O)c1ccc2nc(C3CC3)oc2c1 (stereo not drawn),> 50 µM (inactive),16,> 50
O=C(Nc1ccc(Br)c(Cl)c1)Nc1ccc2c(c1)OCO2,> 50 µM (inactive),> 50,> 50
O=C(CSc1ccc(-c2ccccn2)nn1)Nc1ccc(Cl)cc1,> 50 µM (inactive),> 50,> 50

SMILES,IC50,IC50 [1] [µM],IC50 [2] [µM]
COc1ccc(-c2csc(NC(=O)c3ccc([N+](=O)[O-])s3)n2)cc1OC,1.3 µM,32,1.3
CNc1cncc(C2CCCN2C(=O)Cc2ccc3ccccc3c2)n1 (stereo not drawn),> 50 µM (inactive),> 50,> 50
Cc1cc(C)c(C#N)c(SCC(=O)c2ccc3c(c2)OCO3)n1,> 50 µM (inactive),> 50,> 50
COc1ccc(C(=O)Nc2c(C)nn(COc3cccc(C(F)(F)F)c3)c2C)cc1,> 50 µM (inactive),32,> 50
CC(C)Nc1nccc(-c2c(-c3ccc(F)cc3)ncn2C2CCOCC2)n1,25 µM,> 50,16
O=C(Nc1nc(-c2ccccn2)cs1)N1C[C@H]2C[C@@]2(c2ccccc2)C1,0.5 µM,7.9,0.4
COc1ccc2ncc(F)c(CCN3CC[C@@H](NC(=O)c4cc5c(s4)CCC5)[C@@H](O)C3)c2n1,6.3 µM,25,1.3
Cn1ccnc1-c1nc(NCc2ccccc2Cl)cc(C2CC2)n1,0.63 µM,7.9,0.2
Cc1cc(NC(=O)C2CCCCC2)n(-c2nc3c(c(=O)[nH]2)CCC3)n1,5 µM,10,3.2
Cc1ccc(Nc2nc(C3CCCN3Cc3ccn[nH]3)cs2)nc1 (stereo not drawn),1.6 µM,25,1.3
O=C(CCc1ccc(-c2ccccc2)o1)N1CCN(c2ccc(O)cc2)CC1,4 µM,> 50,1.3
O=c1cc(CSc2ccc(Cl)cc2)nc(-c2ccccn2)[nH]1,5 µM,4,2
Cc1cn[nH]c1C1CCCN(Cc2nc3ccccc3n2C)C1 (stereo not drawn),4 µM,20,3.2
c1ccc2c(CCOc3nccnc3-c3ccncc3)c[nH]c2c1,> 50 µM (inactive),20,20
Nc1nc(-c2ccccn2)nc(N)c1Cc1c(F)cccc1Cl,1.3 µM,32,1
COc1ccc(Nc2nc(-c3ccccn3)cs2)c(OC)c1,2.5 µM,> 50,2
O=c1cc(NCCCNC2CCOc3c(I)cc(Cl)cc32)[nH]c2ccccc12 (stereo not drawn),20 µM,20,13
O=C(NC(c1ccc(Cl)cc1)c1cnccn1)C1CCN(C(=O)Nc2cccc(C(F)(F)F)c2)CC1 (stereo not drawn),> 50 µM (inactive),40,> 50
COc1ccc(Oc2ccc(C(C)N(C)c3ncc4c(N)nc(N)nc4n3)cc2)cc1 (stereo not drawn),0.1 µM,16,0.05
Cc1ccccc1CNC(=O)CN(Cc1ccccn1)Cc1ccccn1,6.3 µM,> 79,4
O=C(COc1nn(-c2ccccc2)c2ncccc12)NCc1ccccc1,0.32 µM,> 50,0.079
CN(C)S(=O)(=O)c1cccc(C(=O)Nc2nc(-c3ccccn3)cs2)c1,6.3 µM,7.9,2.5
